Literature values in US12201720B2, “Pharmaceutical composition comprising GHB gastro-retentive raft forming systems having trigger pulse drug release” (Tris Pharma, Inc., priority 2017, dated 2025).
Read-outs that look alike come from different tables or passages of the source.

Details: descriptive statement

In the case of `O=C(O)CCCO` [Sodium oxybate], the “Solubility in water / aqueous solutions” value is listed as “very soluble” and the “Solubility in water / aqueous solutions” value (listed as Sodium GHB) is listed as “highly water-soluble”.
